25 compounds from patent US20040053928A1, “Quinoline derivatives as antibacterials” (priority 2000, published 2004) can be followed below.

One may read the MIC as the least concentration at which growth counts as inhibited.

Structures can show the parent of a compound that is named as a salt.

The assay can be described thus: MIC of test compounds against various organisms. It is filed as cell-based. The conditions noted are these: against one or more of the above range of gram positive and gram negative bacteria. The protocol:
The MIC (μg/ml) of test compounds against various organisms was determined:
S. aureus Oxford, S. aureus WCUH29, S. pneumoniae 1629, S. pneumoniae N1387, S. pneumoniae ERY 2, E. faecalis 1, E. faecalis 7, H. influenzae Q1, H. influenzae NEMC1, M. catarrhalis 1502, E. coil 7623, E.coli 120.

Regarding `CCOC(=O)C1CN(C[C@H](O)c2ccnc3ccc(OC)cc23)CCC1NCC(=O)Nc1ccccc1` (mixture of isomers) [Example 2, cis-2-{1-[2-(R)-Hydroxy-2-(6-methoxy-quinolin-4-yl)-ethyl]-3-(R/S)-ethoxycarbonyl-piperidin-4-(S/R)-ylamino}-N-phenyl-acetamide dioxalate], the MIC is at most 0.25 µg/mL.
In the case of `COc1ccc2nccc([C@@H](O)CN3CCC(NCC(=O)Nc4ccccc4)C(CO)C3)c2c1` (mixture of isomers) [Example 3, cis-2-{1-[2-(R)-Hydrxy-2-(6-methoxy-quinolin-4-yl)-ethyl]-3-(R/S)-hydroxymethyl-piperidin-4-(S/R)-ylamino}-N-phenyl-acetamide dioxalate], the minimum inhibitory concentration (MIC) is at most 2 µg/mL.
In the case of `COc1ccc2nccc([C@@H](O)CN3CCC(NCC(=O)Nc4ccccc4)C(C(N)=O)C3)c2c1` (mixture of isomers) [Example 4, cis-2-{1-[2-(R)-Hydroxy-2-(6-methoxy-quinolin-4-yl)-ethyl]-3-(R/S)-aminocarbonyl-piperidin-4-(S/R)-ylamino}-N-phenyl-acetamide dioxalate] it was at most 2 µg/mL; in that of `CCOC(=O)C1CN(C(=O)Nc2ccnc3ccc(OC)cc23)CCC1NCC(=O)Nc1ccccc1` (racemic) [Example 5, cis-3-(R/S)-Ethoxycarbonyl-4-(S/R)-(phenylcarbamoylmethyl-amino)-piperidine-1-carboxylic acid (6methoxy-quinolin-4-yl)-amide oxalate], at most 32 µg/mL.
In the case of `COc1ccc2nccc(NC(=O)N3CCC(NCC(=O)Nc4ccccc4)C(CO)C3)c2c1` (racemic) [Example 6, cis-3-(R/S)-Hydroxymethyl-4-(S/R)-(phenylcarbamoylmethyl-amino)-piperidine-1-carboxylic acid (6-methoxy-quinolin-4-yl)-amide oxalate] it was at most 32 µg/mL.
The value for `COc1ccc2nccc(NC(=O)N3CCC(NCCCc4ccco4)C(CO)C3)c2c1` (racemic) [Example 53, cis-4-(S/R)-[3-(2-Furyl)-propyl]amino-3-(R/S)-hydroxymethyl-[6-methoxyquinolin-4-yl)]aminocarbonylpiperidine oxalate] was at most 2 µg/mL.
With `COc1ccc2nccc([C@@H](O)CN3CCC(NCC(=O)Nc4ccccc4)CC3)c2c1` [Example 1, 2-{1-[(R)-2-Hydroxy-2-(6-methoxy-quinoin-4-yl)-ethyl]-piperidin-4-ylamino}-N-phenyl-acetamide dioxalate], the minimum inhibitory concentration (MIC) is at most 0.25 µg/mL.
The value for `COc1ccc2nccc([C@@H](O)CN3CCC(N(C)CC(=O)Nc4ccccc4)CC3)c2c1.O=C(O)C(=O)O.O=C(O)C(=O)O` [Example 12, 2-{1-[(R)-2-Hydroxy-2-(6-methoxy-quinolin-4-yl)-ethyl]-piperidin-4-yl-N-methylamino}-N-phenyl-acetamide dioxalate] was at most 32 µg/mL; that for `COc1ccc2nccc([C@@H](O)CN3CCC(NCC(=O)Nc4ccccn4)CC3)c2c1` [Example 13, 2-{1-[(R)-2-Hydroxy-2-(6-methoxy-quinolin-4-yl)-ethyl]-piperidin-4-ylamino}-N-pyridin-2-yl-acetamide dioxalate] was at most 0.25 µg/mL; that for `COc1ccc2nccc([C@@H](O)CN3CCC(NCC(=O)Nc4ccc(F)c(F)c4)CC3)c2c1` [Example 17, N-(3,4-Difluoro-phenyl)-2-{1-[(R)-2-hydroxy-2-(6-methoxy-quinolin-4-yl-ethyl]-piperidin-4-ylamino)-acetamide dioxalate] was at most 0.25 µg/mL.
The value for `COc1ccc2nccc([C@@H](O)CN3CCC(NCC(=O)Nc4ccc(Cl)c(Cl)c4)CC3)c2c1` [Example 18, N-(3,4-Dichloro-phenyl)-2-{1-[(R)-2-hydroxy-2-(6-methoxy-quinolin-4-yl-ethyl]-piperidin-4-ylamino)-acetamide dioxalate] was at most 2 µg/mL; that for `COc1ccc2nccc([C@@H](O)CN3CCC(NCC(=O)Nc4ccccc4C#N)CC3)c2c1` [Example 19, N-(2Cyano-phenyl)-2-{1-[(R)-2-hydroxy-2-(6-methoxy-quinolin-4-yl-ethyl]-piperidin-4-ylamino)-acetamide dioxalate] was at most 0.25 µg/mL.
On to `COc1ccc2nccc([C@@H](O)CN3CCC(NCC(=O)Nc4ccccc4[N+](=O)[O-])CC3)c2c1` [Example 20, 2-{1-[(R)-2-Hydroxy-2-(6-methoxy-quinolin-4-yl-ethyl]-piperidin-4-ylamino}-N-(2nitro-phenyl)-acetamide dioxalate], for which the MIC is at most 0.25 µg/mL.
The value for `COc1ccc2nccc([C@@H](O)CN3CCC(NCC(=O)Nc4cc(F)cc(F)c4)CC3)c2c1` [Example 29, N-(3,5-Difluoro-phenyl)-2-{1-[(R)-2-hydroxy-2-(6-methoxy-quinolin-4-yl)-ethyl]-piperidin-4-ylamino)-acetamide dioxalate] was at most 0.25 µg/mL.
The value for `COc1ccc2nccc([C@@H](O)CN3CCC(NCC(=O)Nc4cccc(C#N)c4)CC3)c2c1` [Example 34, N-[3-Cyano-phenyl]-2-{1-[(R)-2-hydroxy-2-(6-methoxy-quinolin-4-yl)-ethyl]-piperidin-4-ylamino)-acetamide dioxalate] was at most 32 µg/mL; that for `COc1ccc2nccc([C@@H](O)CN3CCC(NCC(=O)Nc4ccc(F)c([N+](=O)[O-])c4)CC3)c2c1` [Example 36, N-[4-Fluoro-3-nitro-phenyl]-2-{1-[(R)-2-hydroxy-2-(6-methoxyquinolin-4-ethyl]-piperidin-4-ylamino)-acetamide dioxalate] was at most 32 µg/mL.
The value for `COC(=O)C1(NCC(=O)Nc2ccccc2)CCN(C[C@H](O)c2ccnc3ccc(OC)cc23)CC1.O=C(O)C(=O)O.O=C(O)C(=O)O` [Example 37, 2-{1-[2-(R)-Hydroxy-2-(6-methoxy-quinolin-4-yl)-ethyl]-4-methoxycarbonyl-piperidin-4-ylamino)-N-phenyl-acetamide dioxalate] was at most 32 µg/mL; that for `COc1ccc2nccc([C@@H](O)CN3CCC(CO)(NCC(=O)Nc4ccccc4)CC3)c2c1` [Example 38, 2-{1-[2-(R)-Hydroxy-2-(6-methoxy-quinolin-4-yl)-ethyl]-4-hydroxymethyl-piperidin-4-ylamino}-N-phenyl-acetamide dioxalate] was at most 2 µg/mL; that for `COc1ccc2nccc([C@@H](O)CN3CCC(NCC(=O)Nc4ccc(F)cc4)CC3)c2c1` [Example 41, N-(4-Fluoro-phenyl)-2-{1-[(R)-2-hydroxy-2-(6-methoxy-quinlin-4-yl)-ethyl]-piperidin-4-ylamino}-acetamide dioxalate] was at most 2 µg/mL.
For `COc1ccc2nccc(CCN3CCC(NCC(=O)Nc4ccc(F)cc4)CC3)c2c1` [Example 42, N-(4-Fluoro-phenyl)-2-{1-[2-(6-methoxy-quinolin-4-yl)-ethyl]-piperidin-4-ylamino}-acetamide dioxalate], the minimal inhibitory concentration (MIC) was at most 2 µg/mL.
Regarding `COc1ccc2nccc([C@@H](O)CN3CCC(NC/C=C/c4ccccc4[N+](=O)[O-])CC3)c2c1` [Example 54, 4-[trans-1-(2-Nitrophenyl)-3-propeny]amino-1-[2-(R)-hydroxy-2-(6-methoxyquinolin-4-yl)]ethylpiperidine dioxalate], the MIC is at most 0.25 µg/mL.
In the case of `COc1ccc2nccc([C@@H](O)CN3CCC(NC(=O)/C=C/c4ccco4)CC3)c2c1` [Example 72, (E)-3-Furan-2-yl-N-{1-[(R)-2-hydroxy-2-(6-methoxyquinolin-4-yl)-ethyl]-piperidin-4-yl}-acrylamide oxalate] it was at most 2 µg/mL; in that of `COc1ccc2nccc([C@@H](O)CN3CCC(NC/C=C/c4nccs4)CC3)c2n1` [Example 73, 4-[trans-1-(2-Thiazolyl)-3-propenyl]amino-1-[2-(R)-hydroxy-2-(6-methoxy-[1,5]-naphthyridin-4-yl)]ethylpiperidine dimethanesulphonate], at most 0.25 µg/mL.
Take `COc1cc(F)c2nccc([C@@H](O)CN3CCC(NCCOc4ccccn4)CC3)c2c1` [Example 74, 4-[2-(Pyridin-2-yloxy)-ethylamino]-1-[2-(R)-hydroxy-2-(8-fluoro-6-methoxyquinolin-4-yl)]ethylpiperidine dioxalate]: the minimum inhibitory concentration (MIC) was at most 0.25 µg/mL.
`COc1ccc2nccc([C@@H](O)CN3CCC(NCCCn4cc(F)c(=O)[nH]c4=O)CC3)c2c1` [Example 75, 5-Fluoro-1-(3-{1-[(R)-2-hydroxy-2-(6-methoxy-quinolin-4-yl)-ethyl]piperidin-4-ylamino}-propyl)-1H-pyrimidine-2,4-dione dioxolate]: the MIC is at most 32 µg/mL.
